Measured values as given in US10603322B2, “Therapeutic targeting of casein kinase 1δ in breast cancer” (The Scripps Research Institute, priority 2015, dated 2020).

What was measured:
[1] = system: breast cancer cell types overexpressing CK1δ; assay: Cell proliferation assay (Cell-Titer Glo, 72 hr); type: cell-based; conditions: Homo sapiens
Experimental: (§1) Cell proliferation was measured 72 hr after SR-3029 or vehicle treatment using Cell-Titer Glo (Promega) according to the manufacturers' instructions. EC50 values were determined using non-linear regression and a four-parameter algorithm (GraphPad Prism5). For clonogenic assays, cells were plated in 6-well dishes in triplicate at a density of 500-1000 cells per well. After overnight incubation, SR-3029 or vehicle (DMSO) was added to media for 72 hr and cells were allowed to grow out for 7-10 days, during which media was changed every 2-3 days in the absence of compound. Colonies were fixed in 4% paraformaldehyde/PBS and stained with 0.5% methylene blue in 50% ethanol for 1 hr at room temperature and de-stained with water. Colonies with greater than 50 cells were counted using a low magnification light microscope.

[2] = system: MCF10A cell line; assay: Cell proliferation assay (Cell-Titer Glo, 72 hr); type: cell-based, human; conditions: low CK1δ; versus CK1δ overexpressing cells
Experimental: as §1

[3] = system: MCF7 breast cancer cells; assay: Cell proliferation assay (Cell-Titer Glo, 72 hr); type: cell-based, human; conditions: low CK1δ; versus CK1δ overexpressing cells
Experimental: as §1

[4] = system: T47D breast cancer cells; assay: Cell proliferation assay (Cell-Titer Glo, 72 hr); type: cell-based, human; conditions: low CK1δ; versus CK1δ overexpressing cells
Experimental: as §1

[5] = system: MCF7 breast cancer cells; assay: Clonogenic growth assay; type: cell-based, human
Experimental: as §1

[6] = system: MDA-MB-231 cells; assay: Clonogenic growth assay; type: cell-based, human
Experimental: as §1

[7] = system: CK1δ overexpressing breast cancer cells; assay: Apoptosis by PI/Annexin V FACS; type: cell-based, human; conditions: 72 hr treatment
Experimental: 2×10^5 cells seeded in triplicate in 6-well dishes were cultured with SR-3029 or vehicle for 72 hr. Cells were then harvested and stained with Annexin V-FITC and PI using the Annexin V-FITC Apoptosis Detection Kit (BioVision) per the manufacturer's instructions and analyzed using the LSRI II flow cytometer (Becton Dickinson). Staurosporine (Cell Signaling) treated cells (1 μM) were used as positive/compensation controls.

[8] = system: MDA-MB-231-luc tumors; assay: Orthotopic MDA-MB-231-luc tumor model, treatment from day 7; type: in vivo, nude mice; conditions: 20 mg/kg daily i.p.
Text: (§2) All animal studies are approved by the Scripps Florida IACUC. Stable pools of MDA-MB-231-Luc, MDA-MB-231, MDA-MB-468, SKBR3 or BT474 cells were established by injection of 2×10^6 cancer cells into the mammary fat pads of 6-week old female athymic nude mice (Charles River Laboratories). Establishment of BCM-4013 patient derived xenografts were as described (19). Briefly, fresh xenograft tumor fragments (˜1 mm^3) were transplanted into the cleared mammary fat pad of recipient SCID/Bg mice (Charles River Laboratories). Mice were treated with SR-3029 or vehicle (10:10:80, DMSO:Tween-80:Water) at 20 mg/kg daily by i.p. injection. Tumor volumes were measured as the indicated intervals using calipers or by luminescence imaging using the IVIS 100 imager (exposure time, 1-60 sec; binning 8; field of view 15-cm; f/stop 1; open filter) following subcutaneous injection of luciferin (15 mg/ml, Goldbio Technology). Average radiance (p/s/cm^2/sr) was determined from tumor region-of-interest (ROI) using Living-Image (Xenogen) analysis software.

[9] = system: MDA-MB-231 tumor xenografts; assay: Established orthotopic tumor xenograft; type: in vivo, nude mice; conditions: 20 mg/kg daily i.p.
Text: as §2
(§3) For apoptotic detection in cryosections tumors and small intestines were fixed in 10% buffered formalin for 2 hr, incubated in 20% sucrose overnight and embedded in OCT. Frozen sections ([…]) were mounted and stained using the ApopTag Red In Situ Kit according to the manufacturer instructions (CHEMICON). For H&E staining, tissues were fixed in 10% buffered formalin for 48 hr, transferred to 70% ethanol/PBS and embedded in paraffin. Staining was performed on […] sections following deparaffinization (AML Laboratories).

[10] = system: BCM-4013 PDX tumors; assay: Patient-derived xenograft (PDX) model; type: in vivo, SCID/Bg mice; conditions: 20 mg/kg daily i.p.
Text: as §2
For apoptotic detection in cryosections tumors and small intestines were fixed in 10% buffered formalin for 2 hr, incubated in 20% sucrose overnight and embedded in OCT. Frozen sections ([…]) were mounted and stained using the ApopTag Red In Situ Kit according to the manufacturer instructions (CHEMICON). […]

[11] = Tolerability of long-term daily dosing; type: in vivo, mice
Text: as §2, §3

[12] = system: β-catenin; assay: β-catenin expression by immunoblot in breast cancer cells; type: cell-based, human; conditions: 18 hr
Experimental: SDS-PAGE gel electrophoresis was performed using NuPAGE 4-12% Bis-Tris gels (Invitrogen) and transferred to PVDF membranes by semi-dry transfer using trans-blot transfer medium (Biorad). Membranes were blocked in Odyssey blocking buffer (LI-COR Biosciences) and incubated overnight at 4° C. with primary antibodies. After repeated washes with TBST (20 mM Tris, pH 7.6, 140 mM NaCl and 0.1% Tween-20) blots were incubated with the appropriate IRDye-conjugated secondary antibody (LI-COR Biosciences) and imaged using the LI-COR Odyssey. Bands were quantified using the Odyssey software (LI-COR Biosciences). The following antibodies were used in this study: CK1δ and Histone H4 (Abcam), CK1ε, c-Myc (9E10), Cyclin-D1 and β-actin (Santa Cruz), β-catenin (Cell Signaling), GAPDH (Millipore) and CD44 (R&D Systems).

[13] = system: Wnt-3a-directed induction of the TCF reporter; assay: Wnt-3a-induced TCF-dependent luciferase reporter assay in HEK293T cells; type: cell-based, human
Experimental: MDA-MB-231 or HEK293 cells stably expressing the TCF luciferase reporter 7TFP (39) were transfected with β-catenin-S33Y or empty vector (pcDNA). After 18 hr cells were seeded onto a 96-well plate at a density of 6000 cells/well. After 24 hr cells were treated with SR-3029 or vehicle and incubated for 6 hr prior to addition of 1 μg/ml recombinant human Wnt3a (R&D Systems) or PBS. After 3 hr, reporter assays were performed using BriteLite Plus (Perkin Elmer), which was added in equal volume directly to the media and luminescence read using a Spectramax plate reader (Molecular Devices).

[14] = system: kinome; conditions: cited from earlier work
[15] = in vivo; cited from earlier work

Q: With Fc1cccc(-n2cnc3c(NCc4nc5ccc(F)c(F)c5[nH]4)nc(N4CCOCC4)nc32)c1 [SR-3029] as the molecule, how does the EC50 [1] read?
A: Its EC50 is 5 to 70 nM.

Q: And the “sensitivity in cell proliferation assay” value [2]?
A: Its value is 2-3 orders of magnitude less sensitive.

Q: What about the “sensitivity in cell proliferation assay” value [3] of the same molecule?
A: The value was 2-3 orders of magnitude less sensitive and relative insensitivity and refractory.

Q: And the “sensitivity in cell proliferation assay” value [4]?
A: The value was 2-3 orders of magnitude less sensitive.

Q: What about the colony forming capacity [5] of the same molecule?
A: The colony forming capacity was “no effect”.

Q: And the “sensitivity of MCF7 cells with forced overexpression of CK1δ” value ([5]; short-term and long-term growth assays, CK1δ vs GFP)?
A: Its value is “sensitizes them to SR-3029”.

Q: And the “clonogenic growth and survival” value [6]?
A: Its value is “completely blocked”.

Q: What about the “clonogenic growth inhibition with forced overexpression of CK1δ” value ([6]; CK1δ overexpressing vs GFP-expressing controls) of the same molecule?
A: The value was “sufficient to rescue the growth inhibitory effects”.

Q: And the apoptosis [7]?
A: The apoptosis was “selectively triggered rapid apoptosis”.

Q: What about the tumor growth ([8]; single agent, start seven days after engraftment) of the same molecule?
A: The tumor growth was “markedly impaired tumor growth”.

Q: What about the “recipients that developed tumors” value ([8]; n=8 per cohort) of the same molecule?
A: The value was 2.

Q: And the “lifespan (Kaplan-Meier survival)” value [9]?
A: The value was “significantly prolonged lifespan”.

Q: And the “tumor apoptosis (TUNEL)” value [9]?
A: The value was “fulminant apoptosis”.

Q: And the tumor growth ([9]; tumors 100-mm^3 before treatment)?
A: The tumor growth was “marked tumor growth inhibition”.

Q: What about the “tumor cell apoptosis (TUNEL)” value [10] of the same molecule?
A: The value was “triggered tumor cell apoptosis”.

Q: What about the “growth of PDX tumors” value ([10]; p=0.0002) of the same molecule?
A: The value was “significantly inhibited the growth”.

Q: And the “tolerability: body weight, blood chemistry and tissue integrity by histochemistry” value ([11]; long-term daily dosing (48 days), 20 mg/kg i.p.)?
A: The value was “well tolerated, with no overt toxicity”.

Q: And the “small intestine apoptosis, TUNEL staining” value ([11]; long-term treatment)?
A: Its value is “failed to detect evidence of apoptosis”.

Q: What about the “small intestine integrity, H&E staining” value ([11]; long-term treatment) of the same molecule?
A: Its value is “no gross morphological defects”.

Q: And the “expression of the active, nuclear pool of β-catenin” value ([12]; MDA-MB-231, MDA-MB-436, MDA-MB-468 and BT474 cells, 30 nM)?
A: The value was “markedly reduced”.

Q: And the “unphosphorylated, active form of β-catenin (ABC)” value ([12]; MDA-MB-231 cells)?
A: Its value is “reduction”.

Q: What about the “Wnt-3a-directed induction of the TCF reporter” value ([13]; 1 μg/ml Wnt-3a, 3 hr) of the same molecule?
A: Its value is “abolished”.

Q: What about the “TCF reporter activity with constitutively active β-catenin (S33Y)” value ([13]; forced expression of β-catenin S33Y) of the same molecule?
A: Its value is “refractory”.

Q: And the off-target kinase affinity ([14]; CDK4, MYLK4 and FLT3, in addition to CK1δ and CK1ε)?
A: Its off-target kinase affinity is “weaker affinity for only three kinases”.

Q: What about the “fraction of the kinome inhibited” value [14] of the same molecule?
A: Its value is 1%.

Q: And the pharmacokinetic properties [15]?
A: The pharmacokinetic properties was “amenable for in vivo studies”.
